Assay results from ChEMBL document CHEMBL1201862, “PubChem BioAssay data set” (2004).
The source made the active and inactive calls.

Tests used:
[1] = microbe, parasite or virus in culture; type: functional; settings: Mycobacterium tuberculosis
[2] = system: Vero; assay: cells; type: functional; settings: Chlorocebus sabaeus
[3] = growth suppression of PTEN-null colon cells, dose response, cell-based, HCT116 PTEN knockout (AID 1047); type: functional;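 also: HCT116 colon tumor cells with PTEN knocked out; cells exposed to compound for 60 hours before readout; potency for loss of cell viability measured by luminescence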
[4] = growth suppression of beta-catenin-knockout colon cells, dose response, cell-based, HCT116, human colon tumor (AID 1045); type: functional;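 also: HCT116 colon tumor cells with beta catenin knocked out; cells exposed to compound for 60 hours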
[5] = target: Glucose-6-phosphate 1-dehydrogenase (Homo sapiens, UniProt P11413); assay: human G6PD enzyme inhibitors, dose response, selectivity assay for P. falciparum G6PD inhibitor project, biochemical, fluorescence (AID 504792); type: functional
[6] = HEp-2 cell cytotoxicity, dose response, cytotoxicity control for RSV inhibitor project, HTS (AID 2410); type: functional; settings: human respiratory syncytial virus
[7] = target: Cytochrome P450 3A4 (Homo sapiens, UniProt P08684); settings: Potency;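 also: confirmatory qHTS run detecting inhibitors and substrates of CYP3A4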
[8] = target: T1, DNA repair protein RAD52 homolog (Homo sapiens, UniProt P43351); type: functional, biochemical
T1 sequence (P43351 whole entry): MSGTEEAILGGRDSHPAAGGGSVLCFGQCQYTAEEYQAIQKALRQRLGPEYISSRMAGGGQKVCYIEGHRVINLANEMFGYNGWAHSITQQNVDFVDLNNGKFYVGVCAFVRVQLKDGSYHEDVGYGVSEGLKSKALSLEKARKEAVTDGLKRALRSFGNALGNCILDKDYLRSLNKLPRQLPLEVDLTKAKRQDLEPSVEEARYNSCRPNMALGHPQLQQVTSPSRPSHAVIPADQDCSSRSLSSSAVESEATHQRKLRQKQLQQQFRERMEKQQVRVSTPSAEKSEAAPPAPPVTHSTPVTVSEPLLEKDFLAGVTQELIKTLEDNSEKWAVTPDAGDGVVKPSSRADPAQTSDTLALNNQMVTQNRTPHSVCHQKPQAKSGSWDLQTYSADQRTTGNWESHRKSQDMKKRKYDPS

[9] = target: T2, Rac GTPase-activating protein 1 (Homo sapiens, UniProt Q9H0H5); assay: MgcRacGAP GTPase-activating activity inhibitors, confirmation, biochemical, ADP Hunter fluorescence, primary and confirmatory (AID 624330); type: functional
T2 sequence (Q9H0H5 whole entry): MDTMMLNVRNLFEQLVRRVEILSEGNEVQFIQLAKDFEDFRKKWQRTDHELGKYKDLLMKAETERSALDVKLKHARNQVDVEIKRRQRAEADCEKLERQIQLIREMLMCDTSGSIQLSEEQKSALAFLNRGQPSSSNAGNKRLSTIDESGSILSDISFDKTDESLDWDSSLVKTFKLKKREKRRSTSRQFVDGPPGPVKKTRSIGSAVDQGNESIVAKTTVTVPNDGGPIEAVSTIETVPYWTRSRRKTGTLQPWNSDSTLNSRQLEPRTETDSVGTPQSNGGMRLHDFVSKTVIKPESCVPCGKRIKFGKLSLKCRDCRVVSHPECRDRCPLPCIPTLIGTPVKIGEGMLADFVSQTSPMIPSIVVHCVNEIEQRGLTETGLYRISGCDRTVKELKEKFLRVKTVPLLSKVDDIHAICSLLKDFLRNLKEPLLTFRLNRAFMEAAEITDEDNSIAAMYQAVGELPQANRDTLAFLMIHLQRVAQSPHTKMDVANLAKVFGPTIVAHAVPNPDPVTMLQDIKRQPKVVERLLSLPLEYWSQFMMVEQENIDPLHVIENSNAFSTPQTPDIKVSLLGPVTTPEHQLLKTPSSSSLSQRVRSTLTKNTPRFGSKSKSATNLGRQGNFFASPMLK

[10] = target: Eukaryotic translation initiation factor 4E (Mus musculus, UniProt P63073); assay: eIF4E–eIF4G protein interaction inhibitors, dose response, biochemical, TR-FRET (AID 855); type: functional;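 also: potency for disrupting eIF4E binding to eIF4GI seen as loss of FRET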
[11] = target: T3, RNA-binding protein pos-1 (Caenorhabditis elegans, UniProt G5EF15); assay: inhibitors of POS-1/mex-3 RNA binding, dose response, biochemical, fluorescence polarization (AID 1964);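 also: purified POS-1 fused to maltose binding protein made in E. coli; potency of compounds blocking POS-1 binding to fluorescent RNA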
T3 sequence (G5EF15 whole entry): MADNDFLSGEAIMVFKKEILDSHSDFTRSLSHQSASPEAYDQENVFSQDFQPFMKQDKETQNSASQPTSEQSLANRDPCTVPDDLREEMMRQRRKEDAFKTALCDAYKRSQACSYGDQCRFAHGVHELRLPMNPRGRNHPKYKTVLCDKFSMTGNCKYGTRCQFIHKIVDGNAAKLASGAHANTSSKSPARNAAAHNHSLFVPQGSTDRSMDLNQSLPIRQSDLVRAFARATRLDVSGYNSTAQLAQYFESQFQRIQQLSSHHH

[12] = target: T4, Zinc finger protein mex-5 (Caenorhabditis elegans, UniProt Q9XUB2); assay: MEX-5/TCR-2 RNA interaction inhibitors, dose response, biochemical, C. elegans, fluorescence polarization (AID 1960)
T4 sequence (Q9XUB2 whole entry): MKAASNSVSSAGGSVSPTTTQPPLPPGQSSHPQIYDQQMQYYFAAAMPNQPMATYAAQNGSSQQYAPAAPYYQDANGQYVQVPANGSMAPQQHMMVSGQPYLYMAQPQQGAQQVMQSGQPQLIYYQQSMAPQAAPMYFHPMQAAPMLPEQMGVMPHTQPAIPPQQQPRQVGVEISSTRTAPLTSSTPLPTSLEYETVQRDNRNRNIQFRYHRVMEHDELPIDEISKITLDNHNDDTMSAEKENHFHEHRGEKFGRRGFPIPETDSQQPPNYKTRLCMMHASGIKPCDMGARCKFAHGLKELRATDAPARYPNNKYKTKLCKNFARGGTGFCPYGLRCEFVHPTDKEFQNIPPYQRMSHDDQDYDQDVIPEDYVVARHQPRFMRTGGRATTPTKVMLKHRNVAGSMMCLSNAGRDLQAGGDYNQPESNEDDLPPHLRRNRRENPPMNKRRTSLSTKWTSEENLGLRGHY

[13] = target: Large T antigen (Simian virus 40, UniProt P03070); type: functional, Betapolyomavirus macacae;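 also: Confirmatory-stage PubChem screen for compounds that inhibit SV40 T antigen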
[14] = target: T5, Short transient receptor potential channel 4 (Mus musculus, UniProt Q9QUQ5); assay: mouse TRPC4 channel inhibitors, dose response, cell-based, HEK293 TRPC4/mu-opioid, Fluo-4 calcium (AID 434942); type: functional;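 also: potency of inhibitors blocking the TRPC4 calcium response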
T5 sequence (Q9QUQ5 whole entry): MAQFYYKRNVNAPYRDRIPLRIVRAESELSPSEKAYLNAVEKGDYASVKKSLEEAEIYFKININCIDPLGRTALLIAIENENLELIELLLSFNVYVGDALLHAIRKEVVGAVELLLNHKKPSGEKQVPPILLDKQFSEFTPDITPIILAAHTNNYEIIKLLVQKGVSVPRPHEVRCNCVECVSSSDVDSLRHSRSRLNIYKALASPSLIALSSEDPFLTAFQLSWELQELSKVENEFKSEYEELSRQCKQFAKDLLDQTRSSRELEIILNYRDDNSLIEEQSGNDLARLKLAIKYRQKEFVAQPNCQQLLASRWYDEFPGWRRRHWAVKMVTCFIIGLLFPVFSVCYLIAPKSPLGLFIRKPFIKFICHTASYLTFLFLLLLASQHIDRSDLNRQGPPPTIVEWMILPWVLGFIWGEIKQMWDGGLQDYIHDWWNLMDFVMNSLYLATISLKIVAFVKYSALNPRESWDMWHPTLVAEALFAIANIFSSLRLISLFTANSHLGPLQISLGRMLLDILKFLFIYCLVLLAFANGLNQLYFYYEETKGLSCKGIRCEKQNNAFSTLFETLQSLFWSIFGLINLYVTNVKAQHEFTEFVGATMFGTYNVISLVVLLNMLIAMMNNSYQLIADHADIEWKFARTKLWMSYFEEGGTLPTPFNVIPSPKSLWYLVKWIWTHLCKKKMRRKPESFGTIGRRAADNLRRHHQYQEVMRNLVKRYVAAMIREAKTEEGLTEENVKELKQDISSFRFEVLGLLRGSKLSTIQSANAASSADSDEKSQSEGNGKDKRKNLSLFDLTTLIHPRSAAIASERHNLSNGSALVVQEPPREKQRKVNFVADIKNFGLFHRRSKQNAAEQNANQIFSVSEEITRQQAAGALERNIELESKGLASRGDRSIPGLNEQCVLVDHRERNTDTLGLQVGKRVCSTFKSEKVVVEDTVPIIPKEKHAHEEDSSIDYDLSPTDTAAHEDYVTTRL

[15] = cytotoxicity toward NIH3T3 fibroblasts, dose response, counter-screen, cell-based, ATP luminescence, mouse fibroblasts (AID 2010); type: functional;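 also: cells exposed to compound for about 90 hours before reading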
[16] = cells; type: functional
[17] = inhibitors of intracellular T. cruzi replication, confirmation, NIH3T3 host cells, beta-gal luminescence (AID 2044); type: functional, cell-based;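 also: intracellular parasites grown in NIH/3T3 mouse fibroblasts as host cells; luminescent beta-galactosidase reporter signal from transgenic T. cruzi replicating inside host cells; inhibitors lower the luminescence signal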
[18] = target: T6, Ubiquitin-conjugating enzyme E2 N (Homo sapiens, UniProt P61088); type: functional;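 also: Dose-response confirmation in a TR-FRET assay detecting UBC13-driven polyubiquitin chain formation, inhibition measured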
T6 sequence (P61088 whole entry): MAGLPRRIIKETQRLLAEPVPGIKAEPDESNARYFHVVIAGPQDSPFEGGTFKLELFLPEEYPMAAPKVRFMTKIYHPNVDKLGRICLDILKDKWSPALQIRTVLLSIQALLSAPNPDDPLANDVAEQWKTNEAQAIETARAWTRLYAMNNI

[19] = Luminescence Cell-Based Dose Retest to Confirm Inhibitors of Cancer Stem Cells. [Related pubchem assays (depositor defined):AID2717, AID2721]; type: functional; settings: Homo sapiens

Sequence of Cytochrome P450 3A4 (P08684 whole entry): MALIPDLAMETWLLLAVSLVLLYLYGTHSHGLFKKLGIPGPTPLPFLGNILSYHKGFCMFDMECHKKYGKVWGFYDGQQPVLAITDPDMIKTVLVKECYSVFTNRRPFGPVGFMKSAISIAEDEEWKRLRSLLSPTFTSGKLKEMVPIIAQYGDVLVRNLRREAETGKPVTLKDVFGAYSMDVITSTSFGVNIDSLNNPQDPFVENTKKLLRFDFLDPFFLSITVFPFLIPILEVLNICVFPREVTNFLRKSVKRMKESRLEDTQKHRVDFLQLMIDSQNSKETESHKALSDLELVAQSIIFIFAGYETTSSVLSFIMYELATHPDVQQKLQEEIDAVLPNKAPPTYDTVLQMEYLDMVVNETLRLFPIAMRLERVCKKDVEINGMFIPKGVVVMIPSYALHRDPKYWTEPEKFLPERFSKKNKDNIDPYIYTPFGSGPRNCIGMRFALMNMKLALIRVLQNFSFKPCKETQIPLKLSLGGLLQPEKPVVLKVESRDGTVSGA
Sequence of Glucose-6-phosphate 1-dehydrogenase (P11413 whole entry): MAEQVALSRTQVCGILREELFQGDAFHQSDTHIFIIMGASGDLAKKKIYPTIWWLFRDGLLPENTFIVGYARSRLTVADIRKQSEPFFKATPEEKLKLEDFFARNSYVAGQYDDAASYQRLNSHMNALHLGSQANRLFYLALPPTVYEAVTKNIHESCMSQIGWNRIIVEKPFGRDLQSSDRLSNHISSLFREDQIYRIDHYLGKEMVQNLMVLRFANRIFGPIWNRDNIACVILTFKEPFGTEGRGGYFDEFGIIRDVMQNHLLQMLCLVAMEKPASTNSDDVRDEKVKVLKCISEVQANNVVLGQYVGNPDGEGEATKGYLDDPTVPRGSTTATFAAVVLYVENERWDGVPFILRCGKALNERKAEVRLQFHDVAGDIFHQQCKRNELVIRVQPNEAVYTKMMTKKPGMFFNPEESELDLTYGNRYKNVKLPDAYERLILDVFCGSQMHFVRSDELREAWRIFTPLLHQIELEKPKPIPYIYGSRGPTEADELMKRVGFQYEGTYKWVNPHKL
Sequence of Eukaryotic translation initiation factor 4E (P63073 whole entry, the tested form may be a part): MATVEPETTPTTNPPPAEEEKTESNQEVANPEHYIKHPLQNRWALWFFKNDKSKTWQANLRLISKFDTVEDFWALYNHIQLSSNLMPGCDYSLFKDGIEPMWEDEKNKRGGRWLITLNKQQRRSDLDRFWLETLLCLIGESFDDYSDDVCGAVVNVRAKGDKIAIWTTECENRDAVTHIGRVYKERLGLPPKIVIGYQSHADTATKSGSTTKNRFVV
Sequence of Large T antigen (P03070 whole entry): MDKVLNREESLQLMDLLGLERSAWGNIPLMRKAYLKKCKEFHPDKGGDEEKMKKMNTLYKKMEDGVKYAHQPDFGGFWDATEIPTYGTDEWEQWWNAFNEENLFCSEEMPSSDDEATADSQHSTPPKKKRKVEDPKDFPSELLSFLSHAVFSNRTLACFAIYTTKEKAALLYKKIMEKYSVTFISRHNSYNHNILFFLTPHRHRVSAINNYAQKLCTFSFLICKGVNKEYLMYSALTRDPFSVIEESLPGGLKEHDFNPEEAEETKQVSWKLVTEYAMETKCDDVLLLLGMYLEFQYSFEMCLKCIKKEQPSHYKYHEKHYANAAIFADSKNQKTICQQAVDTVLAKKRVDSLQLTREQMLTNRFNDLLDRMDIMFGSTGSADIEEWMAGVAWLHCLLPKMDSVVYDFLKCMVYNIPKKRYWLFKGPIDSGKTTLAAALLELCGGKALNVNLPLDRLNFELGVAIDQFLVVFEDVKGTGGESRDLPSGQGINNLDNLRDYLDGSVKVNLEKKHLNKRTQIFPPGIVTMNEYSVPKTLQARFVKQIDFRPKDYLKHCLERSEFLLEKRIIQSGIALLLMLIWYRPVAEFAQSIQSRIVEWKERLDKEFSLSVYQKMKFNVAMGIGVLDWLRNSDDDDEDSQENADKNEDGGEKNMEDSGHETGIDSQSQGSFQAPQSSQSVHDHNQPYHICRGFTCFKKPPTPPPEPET

With `CC(C)(C)NC(=O)[C@@H]1C[C@@H]2CCCC[C@@H]2CN1C[C@@H](O)[C@H](Cc1ccccc1)NC(=O)[C@H](CC(N)=O)NC(=O)c1ccc2ccccc2n1` the CC50 [1] was > 40 µM (active).

In the case of `C=CCn1c(SCC(=O)c2[nH]c(C)c(C(=O)OCC)c2C)nc2scc(-c3ccc(OC)cc3)c2c1=O`, the CC50 [2] is reported as 6.78 µM (active), the EC50 [3] is reported as 1.49 µM (active) and the EC50 [4] is reported as 1.41 µM (active).

In the case of `CN(CCNC(=O)c1cc2c(=O)n(C)c3ccccc3c2n1C)Cc1ccccc1`, the EC50 [3] is reported as 31.5 µM (active) and the EC50 [4] is reported as 23 µM (active).

In the case of `O=C(Cc1ccccc1)NCC(=O)OCC(=O)c1ccc([N+](=O)[O-])cc1`, the IC50 [5] is reported as > 80 µM (inactive).

For `COc1ccc(OC)c(Nc2nc(-c3sc(C)nc3C)cs2)c1`, the CC50 [6] was 20.4 µM (active) and the CC50 [1] was > 40 µM (active).

For `CNC(=O)C1(C)C=CC2(CCCCC2)N1C(=O)OC` (centres undefined), the AC50 [7] was 25.1 µM (inconclusive).

For `CC1CCCCN1CC(=O)Nc1ccc(N2CCCCCC2)cc1` (centres undefined), the AC50 [8] was 17.4 µM (active) and the IC50 [9] was 101 µM (active).

With `CCOC(=O)c1c(NC(=S)NC(=O)/C=C/c2cccs2)sc(C)c1C` the EC50 [3] was 21.2 µM (active) and the EC50 [4] was 21.4 µM (active).

For `CC1=CC(=O)NP(=O)(Oc2ccc3ccccc3c2)N1` (centres undefined), the IC50 [10] was 31.2 µM (active) and the IC50 [9] was 80.7 µM (active).

For `CCC1=C2CC[C@H]3C(=O)NC(=O)[C@H]3[C@H]2[C@@]2(C)C(=O)N(CC3CC3)C(=O)N2C1=O`, the AC50 [7] was 31.6 µM (inconclusive).

With `CCCN1CCc2cc(O)cc3c2[C@H]1Cc1ccc(O)c(O)c1-3` the EC50 [11] was > 300 µM (inconclusive), the EC50 [12] was > 300 µM (inconclusive) and the IC50 [5] was > 80 µM (inactive). The IC50 [13] was 24 µM (active).

With `CCCCCCc1ccc(N2C[C@H](C)[C@@H](CC(=O)NCc3ccccc3)C2=O)cc1` the CC50 [1] was > 40 µM (active).

In the case of `CC(C)(C)NCc1ccccc1OCc1cccs1`, the EC50 [14] is reported as 3.76 µM (active).

With `CCN(CC)c1cccc(O)c1` the AC50 [7] was 31.6 µM (inconclusive).

With `COc1cccc(-c2cnc(NCc3cc(Cl)ccc3O)n2C)c1` the CC50 [1] was > 40 µM (active).

With `Cc1nc2ccc(NC(=O)c3ccc([N+](=O)[O-])cc3[N+](=O)[O-])cc2s1` the EC50 [15] was > 60 µM (not active), the IC50 [16] was 1.85 µM (active) and the EC50 [17] was 0.654 µM (active).

With `CCN(CC)CCN(C(=O)c1ccc(C(=O)c2ccccc2)cc1)c1nc2c(OC)cccc2s1` the AC50 [8] was 17.2 µM (active).

In the case of `CCc1ccccc1N=C(S)N(CCCN(C)C)Cc1cc2cc3c(cc2nc1O)OCO3`, the EC50 [14] is reported as 1.06 µM (active).

In the case of `COc1cc2c(cc1OC)C(c1ccccc1N)=NCC2`, the AC50 [8] is reported as 18.6 µM (active).

For `COC(=O)CNC(=O)C1(CC(C)C)C=CCN1C(C)=O` (centres undefined), the AC50 [7] was 25.1 µM (inconclusive).

For `CCOc1ccc(OC(=O)c2ccc3c(=O)n4c(nc3c2)CCC4)cc1`, the IC50 [16] was 0.12 µM (active).

With `CC1(C)OC2CC3C4CC(F)C5=CC(=O)C=C[C@@]5(C)[C@@]4(F)C(O)C[C@@]3(C)[C@]2(C(=O)CO)O1` (some centres undefined) the AC50 [7] was 39.8 µM (inconclusive).

With `Cc1ccc(S(=O)(=O)Oc2ccc(/N=N/c3ccc(-c4ccc(/N=N/c5c(O)ccc6cc(S(=O)(=O)O)cc(S(=O)(=O)O)c56)c(C)c4)cc3C)cc2)cc1` the AC50 [7] was 25.1 µM (inconclusive).

For `CCOC(=O)N1CCN(C(=O)C(=O)Nc2sc3c(c2C(N)=O)CC(C)(C)OC3)CC1`, the IC50 [18] was > 20 µM (inactive).

With `CCOC(=O)CSc1nc2ccccc2c(=O)n1CC1CCCC1` the EC50 [14] was 6.68 µM (active).

With `Cc1ccn2cc(CCNC(=O)c3ccc(Br)o3)nc2c1` the EC50 [14] was 7.5 µM (active).

In the case of `COc1ccc2[nH]c(SCc3nc(N)nc(Nc4ccccc4)n3)nc2c1`, the IC50 [18] is reported as > 20 µM (inactive).

With `CC(=O)O[C@H]1[C@@H](O)[C@H](O)[C@H](Oc2c(O)c(C)c3c4c2[C@@H](C)CC[C@@H]4[C@@H](C)C[C@H]3C=C(C)C)O[C@H]1C` the IC50 [18] was > 20 µM (inactive) and the AC50 [19] was 3.19 µM (active).

With `CNC(C)C(=O)NC(C(=O)N1CCCC1C(=O)Nc1ccc2[nH]ccc2c1)C(C)C` (centres undefined) the AC50 [8] was 7.54 µM (active).

For `COc1ccccc1/C=C/C(=O)c1cccs1`, the AC50 [7] was 25.1 µM (inconclusive).

In the case of `COc1ccc(/N=c2\cc(-c3ccc(O)cc3)oc3ccccc23)cc1`, the CC50 [1] is reported as 32.9 µM (active).
